Measured values as given in the supplement of paper PMC11061612.

Tests used:
Experiment in all cases: combination Emax (second highest fraction inhibited in the dose matrix, 72 h); higher = more inhibition; extreme values may be limits of the assay
CAL-72 (Osteosarcoma) = system: CAL-72 (Osteosarcoma)
Procedure, shortened: (§1)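 Bliss excess equals the observed combination effect minus the expected value EA + EB − EA·EB, where EA and EB are the effects of each agent alone. Combination Emax is the second-highest inhibition within the matrix. Inhibition was scaled from CellTiter-Glo 2.0 luminescence, with 0 set by vehicle wells and 1 by blank wells, after 72 hours of two-drug dosing of cells plated in 1536-well plates.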

EW-11 (Ewing's Sarcoma) = system: EW-11 (Ewing's Sarcoma)
Procedure, shortened: as §1

GAMG (Glioblastoma) = system: GAMG (Glioblastoma)
Procedure, shortened: as §1

[1] = system: KYAE-1 (Esophageal Adenocarcinoma)
Procedure, shortened: as §1

MPP-89 (Mesothelioma) = system: MPP-89 (Mesothelioma)
Procedure, shortened: as §1

[2] = system: SAS (Oral Cavity Carcinoma)
Procedure, shortened: as §1

O=C(c1cc(Cc2n[nH]c(=O)c3ccccc23)ccc1F)N1CCN(C(=O)C2CC2)CC1 [Olaparib] + Cc1c2c(nn1C)CSCc1cc(n(C)n1)CSc1cc(c3ccccc3c1)OCCCc1c(C(=O)O)n(C)c3c-2c(Cl)ccc13 [AZD5991] (first compound max 10 µM, 7x7, partner max 1 µM)
combination Emax (CAL-72 (Osteosarcoma)): 0.191 | combination Emax (EW-11 (Ewing's Sarcoma)): 0.831 | combination Emax (GAMG (Glioblastoma)): 0.0955 | combination Emax [1]: 0.231 | combination Emax (MPP-89 (Mesothelioma)): 0.0575 | combination Emax [2]: 0.122

Cc1nc(-c2cn3c(n2)-c2ccc(-c4cnn(C(C)(C)C(N)=O)c4)cc2OCC3)n(C(C)C)n1 [Taselisib] + O=C(Nc1ccc2[nH]nc(-c3ccncc3)c2c1)[C@@H]1CCN(CC(=O)N2CCN(c3ccc(-c4ncccn4)cc3)CC2)C1 [SCH772984] (first compound max 10 µM, 7x7, partner max 5 µM)
combination Emax (CAL-72 (Osteosarcoma)): 0.438 | combination Emax (EW-11 (Ewing's Sarcoma)): 0.746 | combination Emax (GAMG (Glioblastoma)): 0.78 | combination Emax [1]: 0.408 | combination Emax (MPP-89 (Mesothelioma)): 0.688 | combination Emax [2]: 0.945

C[C@@H](Oc1cc(-c2cnn(C3CCNCC3)c2)cnc1N)c1c(Cl)ccc(F)c1Cl [Crizotinib] + Cn1cnc2c(F)c(Nc3ccc(Br)cc3Cl)c(C(=O)NOCCO)cc21 [Selumetinib] (first compound max 10 µM, 7x7, partner max 10 µM)
combination Emax (CAL-72 (Osteosarcoma)): 0.59 | combination Emax (EW-11 (Ewing's Sarcoma)): 0.81 | combination Emax (GAMG (Glioblastoma)): 0.54 | combination Emax [1]: 0.0881 | combination Emax (MPP-89 (Mesothelioma)): 0.37 | combination Emax [2]: 0.781

C=CCn1c(=O)c2cnc(Nc3ccc(N4CCN(C)CC4)cc3)nc2n1-c1cccc(C(C)(C)O)n1 [AZD1775] + CCc1c2c(nc3ccc(O)cc13)-c1cc3c(c(=O)n1C2)COC(=O)[C@]3(O)CC [SN-38] (first compound max 1 µM, partner max 0.3 µM)
combination Emax (CAL-72 (Osteosarcoma)): 0.838 | combination Emax (EW-11 (Ewing's Sarcoma)): 0.723 | combination Emax (GAMG (Glioblastoma)): 0.916 | combination Emax [1]: 0.267 | combination Emax (MPP-89 (Mesothelioma)): 0.769 | combination Emax [2]: 1

O=C(c1cc(Cc2n[nH]c(=O)c3ccccc23)ccc1F)N1CCN(C(=O)C2CC2)CC1 [Olaparib] + CN(CC[C@H](CSC1=CC=CC=C1)NC2=C(C=C(C=C2)S(=O)(=O)NC(=O)C3=CC=C(C=C3)N4CCC(CC4)[C@H](C5=CC=CC=C5C6=CC=C(C=C6)Cl)O)S(=O)(=O)C(F)(F)F)CCO [AZD4320] (first compound max 10 µM, 7x7, partner max 1 µM)
combination Emax (CAL-72 (Osteosarcoma)): 0.183 | combination Emax (EW-11 (Ewing's Sarcoma)): 0.923 | combination Emax (GAMG (Glioblastoma)): 0.223 | combination Emax [1]: 0.587 | combination Emax (MPP-89 (Mesothelioma)): 0.138 | combination Emax [2]: 0.205

C[C@@H](Nc1cc(F)cc(F)c1)c1cc(C(=O)N(C)C)cc2c(=O)cc(N3CCOCC3)oc12 [AZD8186] + CC(=O)c1c(C)c2cnc(Nc3ccc(N4CCNCC4)cn3)nc2n(C2CCCC2)c1=O [Palbociclib] (first compound max 10 µM, 7x7, partner max 10 µM)
combination Emax (CAL-72 (Osteosarcoma)): 0.398 | combination Emax (EW-11 (Ewing's Sarcoma)): 0.428 | combination Emax (GAMG (Glioblastoma)): 0.723 | combination Emax [1]: 0.11 | combination Emax (MPP-89 (Mesothelioma)): 0.317 | combination Emax [2]: 0.609

C[C@@H]1COCCN1c1cc(C2([S@](C)(=N)=O)CC2)nc(-c2ccnc3[nH]ccc23)n1 [AZD6738] + C1CC(C1)(C(=O)[O-])C(=O)[O-].N.N.[Pt+2] [Carboplatin] (first compound max 10 µM, 7x7, partner max 10 µM)
combination Emax (CAL-72 (Osteosarcoma)): 0.718 | combination Emax (EW-11 (Ewing's Sarcoma)): 0.584 | combination Emax (GAMG (Glioblastoma)): 0.611 | combination Emax [1]: 0.0812 | combination Emax (MPP-89 (Mesothelioma)): 0.42 | combination Emax [2]: 0.759

Cc1c2c(nn1C)CSCc1cc(n(C)n1)CSc1cc(c3ccccc3c1)OCCCc1c(C(=O)O)n(C)c3c-2c(Cl)ccc13 [AZD5991] + Nc1ccn([C@@H]2O[C@H](CO)[C@@H](O)C2(F)F)c(=O)n1 [Gemcitabine] (first compound max 1 µM, 7x7, partner max 0.3 µM)
combination Emax (CAL-72 (Osteosarcoma)): 0.613 | combination Emax (EW-11 (Ewing's Sarcoma)): 0.868 | combination Emax (GAMG (Glioblastoma)): 0.662 | combination Emax [1]: 0.127 | combination Emax (MPP-89 (Mesothelioma)): 0.428 | combination Emax [2]: 0.924

CN(CCO)CC[C@H](CSc1ccccc1)Nc1ccc(S(=O)(=O)NC(=O)c2ccc(N3CCC([C@@H](O)c4ccccc4-c4ccc(Cl)cc4)CC3)cc2)cc1S(=O)(=O)C(F)(F)F [AZD4320] + CS(=O)(=O)CCNCc1ccc(-c2ccc3ncnc(Nc4ccc(OCc5cccc(F)c5)c(Cl)c4)c3c2)o1 [Lapatinib] (first compound max 1 µM, 7x7, partner max 10 µM)
combination Emax (CAL-72 (Osteosarcoma)): 0.933 | combination Emax (EW-11 (Ewing's Sarcoma)): 0.95 | combination Emax (GAMG (Glioblastoma)): 0.951 | combination Emax [1]: 0.97 | combination Emax (MPP-89 (Mesothelioma)): 0.746 | combination Emax [2]: 0.525

C[C@@H](Oc1cc(-c2cnn(C3CCNCC3)c2)cnc1N)c1c(Cl)ccc(F)c1Cl [Crizotinib] + CC1=C(C(=CC=C1)Cl)NC(=O)C2=CN=C(S2)NC3=CC(=NC(=N3)C)N4CCN(CC4)CCO [Dasatinib] (first compound max 10 µM, 7x7, partner max 2 µM)
combination Emax (CAL-72 (Osteosarcoma)): 0.79 | combination Emax (EW-11 (Ewing's Sarcoma)): 0.788 | combination Emax (GAMG (Glioblastoma)): 0.929 | combination Emax [1]: 0.169 | combination Emax (MPP-89 (Mesothelioma)): 0.914 | combination Emax [2]: 0.779
